In patent publication US20180289763A1, “COMPOSITION CONTAINING HERBAL MEDICINE EXTRACTS OF PINELLIA AND SCUTELLARIA FOR REDUCING SIDE EFFECTS DUE TO ANTICANCER DRUGS” (COMPREHENSIVE AND INTEGRATIVE MEDICINE INSTITUTE, priority 2013, published 2018):
Marks after values point to notes of the source that are not given here.

Key:
gastrin = assay: Gastrin content in pyloric tissues; format: in vivo, rat
Description: Meanwhile, in the ondansetron administered group, a change in pylorus gastrin content similar to that in the cisplatin control was shown (FIG. 4(A)).

[1] = system: cisplatin-induced gastrointestinal motility disorder; assay: Charcoal transit ratio in small intestine (gastrointestinal motility); format: in vivo, rat; settings: for Distance charcoal meal transferred / GI charcoal transit ratio: during 30 min
Description: Also, permeation of a substance through the digestive tract represents the motility in the entire gastrointestinal tract, measurement of a charcoal transit ratio in the small intestine is known to be very useful to diagnose whether or not there is a problem in digestive motility (Wintola et al., 2010), and a decrease in the charcoal transit ratio in the small intestine indicates a decrease in digestive motility such as the fecal retention, that is, constipation (Sagar et al., 2005; Meite et al., 2010).
A total length of a small intestine and a distance that a charcoal meal was transferred in the small intestine were measured, and the charcoal transit ratio was calculated, and then the results are shown in Table 4.

[2] = system: fundus antioxidant defense system; assay: Fundus antioxidant defense system (MDA, GSH, CAT, SOD); format: in vivo, rat
Description: Changes in MDA content, GSH content, SOD activity, and CAT activity in the fundus in each group that were observed are shown in Table 6.

[3] = system: cisplatin-induced gastrointestinal tract damage (fundic and pyloric mucosa); assay: Histopathology of fundus and pylorus (mucosa thickness, degenerative mucosa percentage)
Experimental: (§1) In the examples, to provide an integrated medical method to reduce side effects caused by a chemotherapeutic agent with respect to a patient with a neoplastic disease, an effect of co-administration of a Pinelliae Rhizoma and Scutellariae Radix extract with respect to a digestive motility disorder caused by the chemotherapeutic agent was examined. In the following examples, rats with a gastrointestinal motility disorder caused by cisplatin were used. 2 mg/kg of cisplatin was administered once a week for 5 weeks, each of 200, 100 and 50 mg/kg of the Pinelliae Rhizoma and Scutellariae Radix extracts were administered at 14 days from the fourth administration of cisplatin, influences on gastrointestinal motility, damage to a digestive tract mucosa and physiology of digestive tract endocrine cells were observed as well as an antioxidative effect, experimental results were compared to an ondansetron 1 mg/kg administered group, wherein the ondansetron was known as a representative 5-HT3 receptor blocking agent to have an effective effect on a cisplatin-induced gastrointestinal motility disorder.
(§2) In this example, as laboratory animals, Sprague-Dawley, Slc: SD rats (6-week-old males, SLC, Shizuoka, Japan) were used. 60 healthy SPF rats were purchased, acclimated for 14 days, and 8 laboratory animals having uniform body weights (intact control: 249.13±12.12 g, 232˜264 g; cisplatin treated group: 225.35±10.58 g, 206˜243 g) when fasting after three weeks of cisplatin administration per each group were selected to be used in the experiment. […] All of the laboratory animals underwent fasting for about 18 hours at each of the first treatment of cisplatin, the first drug administration and the final necropsy (even in this period, drinking water was freely provided), individuals were identified using picric acid.
(§3) To cause a gastrointestinal motility disorder, 2 mg/kg of cisplatin (Sigma-Aldrich, St. Louise, Mo., USA) was dissolved in a saline solution, and the resulting solution was intraperitoneally administered at a dose of 1 ml/kg once a week for 5 weeks, thereby causing a chronic gastrointestinal motility disorder, and in the normal vehicle control, the same dose of a saline solution, instead of cisplatin, was intraperitoneally administered by the same method.
(§4) A Pinelliae Rhizoma and Scutellariae Radix herbal medicine was dissolved in sterile distilled water at a dose of 5 ml/kg (a body weight of the animal) three weeks after the first cisplatin administration, and forcibly and orally administered with a 5 ml syringe equipped with a metal zonde 30 minutes after the fourth cisplatin administration once a day for 14 days. The ondansetron was dissolved in a saline solution, subcutaneously administered with the same frequency as the Pinelliae Rhizoma and Scutellariae Radix herbal medicine at a dose of 1 ml/kg, and in the normal vehicle and cisplatin controls, instead of the Pinelliae Rhizoma and Scutellariae Radix extract or ondansetron, only the same dose of sterile distilled water was orally administered.
(§5) An effect on the gastrointestinal motility was evaluated by evaluating a charcoal transit ratio in the small intestine, effects on constipation were evaluated by observing a body weight, the change in fecal parameters (the fecal pellet number, the fecal weight, and the water content in the feces), the histopathological changes in the colon containing fecal pellets—changes in fecal pellet surface mucosa thickness, mucous producing cell number per mm2 of the mucosa and average mucosa thickness.

serotonin = assay: Serotonin content in pyloric tissues; format: in vivo, rat
Description: Meanwhile, in the ondansetron administered group, a change in pylorus serotonin content similar to that in the cisplatin control was shown (FIG. 4(B)).

monoamine oxidase = assay: Pylorus monoamine oxidase activity; format: in vivo, rat
Experimental: Compared to the normal vehicle control, in the cisplatin control, a significant (p<0.01) decrease in activity of a serotonin lyase, monoamine oxidase, in pyloric tissues was shown, but in the Pinelliae Rhizoma and Scutellariae Radix extract 200, 100 and 5 mg/kg administered groups, compared to the cisplatin control, significant (p<0.01) increases in monoamine oxidase activity in pyloric tissues were dose-dependently shown. Meanwhile, in the ondansetron administered group, a change in monoamine oxidase activity similar to that in the cisplatin control was shown (FIG. 3(B)).

tryptophan hydroxylase = assay: Pylorus tryptophan hydroxylase activity; format: in vivo, rat
Description: Meanwhile, in the ondansetron administered group, a change in tryptophan hydroxylase activity similar to that in the cisplatin control was shown (FIG. 3(A)).

[4] = Body weight and body weight gain in cisplatin-treated rats; format: in vivo, rat
Experimental: Body weights and body weight gains in each group that were measured after the first and fourth administrations of cisplatin and the necropsy are shown in Table 3.

[5] = system: gastrin immunoreactive cells; assay: Gastrin immunoreactive cells in pyloric mucosa; format: in vivo, rat
Description: As a result of observing histopathological changes, the numbers of gastrin and serotonin immunoreactive cells in the pyloric mucosa and the number of serotonin immunoreactive cells in the colonic mucosa that were detected are shown in Table 9.
Meanwhile, in the ondansetron administered group, a change in the number of gastrin immunoreactive cells in the pyloric mucosa similar to that in the cisplatin control was shown (Table 9, and FIG. 8).

[6] = system: serotonin immunoreactive cells; assay: Serotonin immunoreactive cells in pyloric and colonic mucosa; format: in vivo, rat
Experimental: as §1, §2, §3, §4, §5

[7] = system: cisplatin-induced gastrointestinal motility disorder; assay: Fecal parameters (pellet number, wet and dry weight, water content); format: in vivo, rat; settings: for Fecal Dry-weight / Fecal Water content / Fecal Wet-weight / Fecal pellet number: feces of 24 hours
[8] = system: cisplatin-induced colonic mucosa atrophy; format: in vivo, rat; settings: 1 mg/kg s.c., 14 days
Description: In the cisplatin control, considerable decreases in the mucous producing cell number per unit area (mm^2) and fecal pellet surface mucous thickness were caused along with the atrophy of the total colonic mucosa containing fecal pellets, and thus, compared to the normal vehicle control, significant (p<0.01) decreases in fecal pellet-containing colonic mucosa thickness, the mucous producing cell number in the mucosa and fecal pellet surface mucous thickness were shown.

[9] = cisplatin control (2 mg/kg i.p. weekly) compared to the normal vehicle control
[10] = cisplatin 2 mg/kg i.p. once a week for 5 weeks
[11] = cisplatin control (2 mg/kg i.p. weekly) compared to the normal vehicle control, 33 to 34 days after first cisplatin
[12] = 1 mg/kg s.c., 14 days, compared to the cisplatin control
[13] = 1 mg/kg s.c., 14 days, cisplatin-treated rats
[14] = cisplatin-treated rats, at sacrifice
[15] = compared to the cisplatin control

## N.N.[Cl][Pt][Cl] [Cisplatin, cis-diaminedichloroplatinum II]
gastrin; [9]
  change of gastrin content in pyloric tissues at the final sacrifice: −59.22%
[1]; [10]
  Distance charcoal meal transferred: 45.00 ± 11.08^a cm
  GI charcoal transit ratio: 35.61 ± 8.66^a %
[1]; [9]
  change of charcoal transit ratio in the small intestine: −53.09%
  change of distance that the charcoal meal was transferred in the small intestine: −53.06%
[2]; [10]
  Fundus Catalase: 44.06 ± 8.98^a nM/mim/mg tissue
  Fundus Glutathione: 1.22 ± 0.40^d μM/mg tissue
  Fundus Malondialdehyde: 16.24 ± 2.27^a nM/g tissue
  Fundus Superoxide dismutase: 71.96 ± 15.54^a nM/mim/mg tissue
[2]; [9]
  change of CAT activity in fundus tissues at the final sacrifice: −55.83%
  change of GSH content in the fundus tissue at the final sacrifice: −72.46%
  change of MDA content in fundus tissues at the final sacrifice: 327.30%
  change of SOD activity in the fundus tissue at the final sacrifice: −56.87%
[3]; [10]
  Fundus Degenerative mucosa percentage: 54.89 ± 10.97^d %/mucosa
  Fundus Total mucosa thickness: 436.02 ± 87.18^a μm
  Pylorus Degenerative mucosa percentage: 68.26 ± 10.44^a %/mucosa
  Pylorus Total mucosa thickness: 146.12 ± 26.03^a μm
[3]; [9]
  change of average fundic mucosa thickness: −47.53%
  change of pylorus average mucosa thickness: −61.72%
serotonin; [9]
  change of serotonin content in pyloric tissues at the final sacrifice: 279.57%
Monoamine oxidase; [9]
  change of monoamine oxidase activity in pyloric tissues at the final sacrifice: −68.47%
Tryptophan hydroxylase; [9]
  change of tryptophan hydroxylase activity in pyloric tissues at the final sacrifice: 184.55%
[4]; [10]
  Body weight Sacrifice [C]: 195.13 ± 12.96^a g
  Body weight gain Test article dosing periods [C − B]: −29.88 ± 3.04^d g
  Body weight gain Total experiment periods [C − A]: −4.00 ± 7.01^d g
[4]; cisplatin 2 mg/kg i.p. once a week, three weeks after first administration
  Body weight At 4th cisplatin treatment [B]: 225.00 ± 13.90^a g
[4]; [9]
  change of body weight gain during the total 5-week experiment: −107.34%
  change of body weight gain for 2 weeks after the drug administration: −896.67%
[5]; [10]
  Number of Gastrin-IR cells in the pyloric mucosa: 11.75 ± 3.77^d cells/mm^2 of mucosa
[5]; [9]
  change of number of gastrin immunoreactive cells per unit area of the pyloric mucosa: −86.42%
[6]; [10]
  Number of Serotonin-IR cells in the colonic mucosa: 73.75 ± 11.79^a cells/mm^2 of mucosa
  Number of Serotonin-IR cells in the pyloric mucosa: 65.38 ± 11.02^a cells/mm^2 of mucosa
[6]; [9]
  change of number of serotonin immunoreactive cells per unit area of the colonic mucosa: 514.58%
  change of number of serotonin immunoreactive cells per unit area of the pyloric mucosa: 530.12%
[7]; [10]
  Fecal Dry-weight: 5.14 ± 1.51 g
  Fecal Water content: 32.86 ± 6.45^d %
  Fecal Wet-weight: 7.66 ± 2.14^a g
[7]; cisplatin 2 mg/kg i.p. once a week for 5 weeks, 33 to 34 days after first cisplatin
  Fecal pellet number: 15.75 ± 5.50^a
[7]; [11]
  change of average dry weight of feces for 24 hours: −7.30%
  change of average water content in feces excreted for 24 hours: −54.47%
  change of average wet weight of the feces excreted for 24 hours: −62.34%
  change of total number of fecal pellets excreted for 24 hours: −61.23%

## Cc1nccn1CC1CCc2c(c3ccccc3n2C)C1=O (centres unmarked) [Ondansetron, ondansetron]
gastrin; [12]
  change of gastrin content in pyloric tissues at the final sacrifice: −3.05%
[1]; [13]
  Distance charcoal meal transferred: 65.13 ± 10.68^ac cm
  GI charcoal transit ratio: 50.80 ± 8.85^ac %
[1]; [12]
  change of charcoal transit ratio in the small intestine: 42.66%
  change of distance that the charcoal meal was transferred in the small intestine: 44.72%
[2]; [13]
  Fundus Catalase: 63.48 ± 12.39^ac nM/mim/mg tissue
  Fundus Glutathione: 1.81 ± 0.17^de μM/mg tissue
  Fundus Malondialdehyde: 9.67 ± 1.93^ac nM/g tissue
  Fundus Superoxide dismutase: 103.00 ± 22.32^ac nM/mim/mg tissue
[2]; [12]
  change of CAT activity in fundus tissues at the final sacrifice: 44.10%
  change of GSH content in the fundus tissue at the final sacrifice: 48.11%
  change of MDA content in fundus tissues at the final sacrifice: −40.45%
  change of SOD activity in the fundus tissue at the final sacrifice: 43.13%
[3]; [13]
  Fundus Degenerative mucosa percentage: 35.42 ± 4.69^de %/mucosa
  Fundus Total mucosa thickness: 592.37 ± 51.61^ac μm
  Pylorus Degenerative mucosa percentage: 41.08 ± 10.77^ac %/mucosa
  Pylorus Total mucosa thickness: 240.01 ± 36.08^ac μm
[3]; [12]
  change of average fundic mucosa thickness: 35.86%
  change of pylorus average mucosa thickness: 64.25%
serotonin; [12]
  change of serotonin content in pyloric tissues at the final sacrifice: −4.04%
Monoamine oxidase; [12]
  change of monoamine oxidase activity in pyloric tissues at the final sacrifice: 5.05%
Tryptophan hydroxylase; [12]
  change of tryptophan hydroxylase activity in pyloric tissues at the final sacrifice: −4.35%
[4]; [13]
  Body weight Sacrifice [C]: 212.38 ± 4.66^ab g
  Body weight gain Test article dosing periods [C − B]: −14.50 ± 5.68^de g
  Body weight gain Total experiment periods [C − A]: 14.50 ± 11.64^de g
[4]; [12]
  change of body weight gain during the total 5-week experiment: 463.50%
  change of body weight gain for 2 weeks after the drug administration: 52.46%
[8]; [14]
  Colonic mucosa thickness: 192.08 ± 27.34^ac μm
  Fecal pellet surface mucous thickness: 28.00 ± 6.98^df μm
  Mucous producing cell number: 306.63 ± 78.94^ac cells/mm^2
[8]; [15]
  change of fecal pellet surface mucous thickness in the colon: 239.94%
  change of fecal pellet-containing colon average mucosa thickness: 72.06%
  change of mucous producing cell number in the colonic mucosa: 126.92%
[5]; [13]
  Number of Gastrin-IR cells in the pyloric mucosa: 11.63 ± 3.70^d cells/mm^2 of mucosa
[5]; [12]
  change of number of gastrin immunoreactive cells per unit area of the pyloric mucosa: −1.06%
[6]; [13]
  Number of Serotonin-IR cells in the colonic mucosa: 73.00 ± 17.65^a cells/mm^2 of mucosa
  Number of Serotonin-IR cells in the pyloric mucosa: 64.00 ± 10.45^a cells/mm^2 of mucosa
[6]; [12]
  change of number of serotonin immunoreactive cells per unit area of the colonic mucosa: −1.02%
  change of number of serotonin immunoreactive cells per unit area of the pyloric mucosa: −2.10%
[7]; [13]
  Fecal Dry-weight: 5.27 ± 1.10 g
  Fecal Water content: 55.32 ± 13.07^ef %
  Fecal Wet-weight: 12.55 ± 3.71^ab g
  Fecal pellet number: 25.38 ± 6.95^ac
[7]; [12]
  change of average dry weight of feces for 24 hours: 2.48%
  change of average water content in feces excreted for 24 hours: 68.34%
  change of average wet weight of the feces excreted for 24 hours: 63.91%
  change of total number of fecal pellets excreted for 24 hours: 61.11%
